Results: patent US6432655B1, “Method of obtaining compositions” (Synaptic Pharmaceutical Corporation, priority 1992, dated 2002)
Like-named read-outs stand apart in the source and are kept apart here.

Key:
human 5-HT4B receptor [1] = biological target: T1, human 5-HT4B receptor (Homo sapiens, UniProt P34969); test: cell-based; type: cell-based; details: for Emax: L-M(TK-), read-out: Emax* (% 5-HT RESPONSE)
T1 construct: The entire coding region of the human 5-HT4B receptor (1338 bp); expressed in transfected cells
T1 sequence (P34969 1-445 isoform P34969-2): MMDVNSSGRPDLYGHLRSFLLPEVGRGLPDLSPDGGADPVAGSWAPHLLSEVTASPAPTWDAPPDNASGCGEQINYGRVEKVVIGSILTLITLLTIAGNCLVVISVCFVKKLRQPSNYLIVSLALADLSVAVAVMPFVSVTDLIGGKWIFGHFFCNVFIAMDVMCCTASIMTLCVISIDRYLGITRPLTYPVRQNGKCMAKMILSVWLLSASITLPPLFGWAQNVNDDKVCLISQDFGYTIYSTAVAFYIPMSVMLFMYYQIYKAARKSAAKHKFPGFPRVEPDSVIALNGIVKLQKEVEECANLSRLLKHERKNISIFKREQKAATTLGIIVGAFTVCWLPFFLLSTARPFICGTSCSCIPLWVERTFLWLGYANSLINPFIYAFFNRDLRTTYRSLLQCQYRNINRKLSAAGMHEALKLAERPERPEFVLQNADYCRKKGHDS

human 5-HT4B receptor [2] = biological target: T1, human 5-HT4B receptor; test: cAMP formation in intact, transiently transfected Cos-7 cells; type: cell-based; details: for stimulation of basal cAMP release: 1 μM; for activity at the clone hp78a receptor: compounds used to define the classical 5-HT4 receptor
[3] = biological target: T2, human 5-HT4B receptor (clone hp78a) (Homo sapiens, UniProt P34969); test: [3H]5-HT radioligand binding to membranes of Cos-7 cells transiently expressing clone hp78a
T2 construct: The entire coding region of the human 5-HT4B receptor (1338 bp); expressed in transfected cells; host or cells: Cos-7 (monkey kidney), transient, plasmid hp78a/EXJ (pcEXV-5HT4B)
T2 sequence (P34969 1-445 isoform P34969-2): as above

5-HT4B receptor = biological target: T3, 5-HT4B receptor (Rattus norvegicus, UniProt P32305); test: [3H]5-CT receptor autoradiography on rat brain sections; type: binding; details: for effect on [3H]5-CT binding: masks: 100 nM PAPP and 160 nM (−)pindolol added together
T3 construct: from tissue; host or cells: rat brain cryostat sections (20 µm)
T3 sequence (P32305 whole entry): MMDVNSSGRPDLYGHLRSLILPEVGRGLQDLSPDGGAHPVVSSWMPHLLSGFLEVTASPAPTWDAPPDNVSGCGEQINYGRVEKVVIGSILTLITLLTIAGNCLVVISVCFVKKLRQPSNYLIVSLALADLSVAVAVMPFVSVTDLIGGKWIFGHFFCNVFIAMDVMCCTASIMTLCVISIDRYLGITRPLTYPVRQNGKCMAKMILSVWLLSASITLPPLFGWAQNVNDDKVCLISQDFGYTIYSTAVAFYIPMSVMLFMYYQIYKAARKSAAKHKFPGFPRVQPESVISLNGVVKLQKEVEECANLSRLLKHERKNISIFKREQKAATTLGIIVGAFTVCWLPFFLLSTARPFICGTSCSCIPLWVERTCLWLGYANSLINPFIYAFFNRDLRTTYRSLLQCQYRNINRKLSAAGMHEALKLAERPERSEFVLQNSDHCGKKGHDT

[4] = tested on: 5-HT receptor present in glial membranes; details: Fillion et al., 1980, property shared with hp78a, cited from earlier work
[5] = tested on: untransfected or mock-transfected Cos-7 cells; test: cAMP in untransfected or mock-transfected Cos-7 cells; type: cell-based, monkey; details: 1 μM
Method: Both the 5-HT-mediated inhibition and stimulation of cAMP levels were evaluated in these three intact cell preparations. Intracellular cAMP formation was measured by radioimmunoassay (cAMP Radioimmunoassay kit, Advanced Magnetics, Cambridge, Mass.) using methodology outlined by Zgombick et al. (1991). Radioactivity was quantitatied using a Packard COBRA Auto Gamma Counter (equipped with data reduction software).

[6] = normalized to the 5-HT maximal response
[7] = read-out: Ki (apparent dissociation constants for clone hp78a)
[8] = Ki (apparent dissociation constants for clone hp78a)
[9] = dissociation constant of antagonist, KB = [B]/(A′/A) − 1], read-out: KB
[10] = 30 nM competitor, 5 nM [3H]5-HT, 30 min at 37° C.
[11] = 100 nM competitor, 5 nM [3H]5-HT, 30 min at 37° C.
[12] = 5 nM [3H]5-HT, seven concentrations of competitor, 30 min at 37° C., mean ± S.E.M., 2-5 determinations, read-out: Ki (apparent dissociation constants for clone hp78a)

CCCN(CCC)C1CCc2cccc(O)c2C1 (stereo not shown)
INTRINSIC ACTIVITY (human 5-HT4B receptor [1]): PARTIAL AGONIST
functional character (human 5-HT4B receptor [1]): weak agonist
Emax* (% 5-HT RESPONSE) (human 5-HT4B receptor [1]; [6]): 51 ± 14 % 5-HT RESPONSE
stimulation of basal cAMP release (human 5-HT4B receptor [2]): about 2 fold

CC(C)NCC(O)COc1cccc2[nH]ccc12 (racemic) [Pindolol]
Ki [3, 7]: > 5000 nM

CC(N)Cc1c[nH]c2ccc(O)cc12 (racemic) [α-Methyl-5-hydroxy-tryptamine]
Ki [3, 8]: 509 nM

CC(C)NCC(O)COc1cccc2[nH]ccc12 (single isomer, unassigned; (-)) [(−)pindolol]
effect on [3H]5-CT binding (5-HT4B receptor): markedly reduced

c1ccc2c(N3CCNCC3)cccc2c1 [1-Naphthylpiperazine]
Ki [3, 7]: 83 ± 19 nM

CCN(CC)C(=O)[C@@H]1C=C2c3cccc4[nH]c(Br)c(c34)C[C@H]2N(C)C1 [2-Bromo-LSD]
Ki [3, 7]: 30 ± 10 nM
antagonism [4]: Potent antagonism
INTRINSIC ACTIVITY (human 5-HT4B receptor [1]): ANTAGONIST
Kb (human 5-HT4B receptor [1]; [9]): 12 ± 3 nM
Emax* (% 5-HT RESPONSE) (human 5-HT4B receptor [1]; [6]): 0 % 5-HT RESPONSE
% INHIBITION OF 5-HT RESPONSE (human 5-HT4B receptor [2]): 95 ± 4.5%
FOLD cAMP STIMULATION (human 5-HT4B receptor [2]; 1 μM drug, relative to basal levels): 0

NCCc1c[nH]c2ccc(OCc3ccccc3)cc12 [5-Benzyloxytryptamine]
Ki [3, 8]: 729 nM

NCCc1c[nH]c2ccc(O)cc12 [5-HT, 5-Hydroxytryptamine]
effect on basal or FSK-stimulated adenylate cyclase activity [5]: no effect
EC50 ([4]; read-out: EC50 value for 5-HT stimulation of cAMP): 500 to 1000 nM
INTRINSIC ACTIVITY (human 5-HT4B receptor [1]): AGONIST (AGONIST indicates that the maximal response to the drug was at least 80% of the maximum response obtained with 5-HT)
increase in cAMP release over basal levels (human 5-HT4B receptor [2]): 20 fold
stimulation of basal cAMP release (human 5-HT4B receptor [2]): 7 fold
stimulation of intracellular cAMP accumulation (human 5-HT4B receptor [2]; coincubation of 1 μM FSK and 1 μM 5-HT): 75 fold

COc1ccc2[nH]cc(CCN)c2c1 [5-MeOT, 5-Methoxytryptamine]
INTRINSIC ACTIVITY (human 5-HT4B receptor [1]): AGONIST (key: AGONIST indicates that the maximal response to the drug was at least 80% of the maximum response obtained with 5-HT)
functional character (human 5-HT4B receptor [1]): potent agonists
Emax (human 5-HT4B receptor [1]): 100 ± 5%
agonist activity (human 5-HT4B receptor [2]): potent agonists

CC(C)C[C@H]1C(=O)N2CCC[C@H]2[C@]2(O)O[C@](NC(=O)[C@@H]3C=C4c5cccc6[nH]c(Br)c(c56)C[C@H]4N(C)C3)(C(C)C)C(=O)N12 [Bromocriptine]
Kb (human 5-HT4B receptor [1]): 240 ± 10 nM
Emax (human 5-HT4B receptor [1]): 0%

CN(C)CCc1c[nH]c2ccc(O)cc12 [Bufotenin]
Ki [3, 8]: 26 nM

COc1cc(CC(C)N)c(OC)cc1I (stereo not shown) [DOI]
PERCENT INHIBITION (displacement of specific [3H]5-HT binding) [3]: 20

CN1C[C@H](C(=O)N[C@]2(C)O[C@@]3(O)[C@@H]4CCCN4C(=O)[C@H](Cc4ccccc4)N3C2=O)C[C@@H]2c3cccc4[nH]cc(c34)C[C@H]21 [Dihydroergotamine]
Ki [3, 8]: 6.9 ± 0.9 nM
INTRINSIC ACTIVITY (human 5-HT4B receptor [1]): ANTAGONIST
Emax (human 5-HT4B receptor [1]): 0%
Kb (human 5-HT4B receptor [1]; [9]): 20 ± 4 nM

CCCN(CCC)CCc1c[nH]c2ccc(C(N)=O)cc12 [Dipropyl-5-carboxamidotryptamine]
Ki [3, 7]: 37 ± 21 nM
EC50 (human 5-HT4B receptor [1]): 2400 nM
Emax* (% 5-HT RESPONSE) (human 5-HT4B receptor [1]): 86 ± 12 % 5-HT RESPONSE
INTRINSIC ACTIVITY (human 5-HT4B receptor [1]): AGONIST (key: AGONIST indicates that the maximal response to the drug was at least 80% of the maximum response obtained with 5-HT)

NCCc1ccc(O)c(O)c1 [Dopamine]
PERCENT INHIBITION (displacement of specific [3H]5-HT binding) [3, 10]: 0

CN1C[C@H](C(=O)N[C@]2(C)O[C@@]3(O)[C@@H]4CCCN4C(=O)[C@H](Cc4ccccc4)N3C2=O)C=C2c3cccc4[nH]cc(c34)C[C@H]21 [Ergotamine]
Ki [3, 8]: 15 nM
Ki ([3]; Ki for clone hp78a): < 20 nM
effect on specific [3H]5-CT binding (5-HT4B receptor; 1 μM, 0.5 nM [3H]5-CT): completely eliminated

Nc1nc2c(ncn2[C@@H]2O[C@H](COP(=O)(O)OP(=O)(O)NP(=O)(O)O)[C@@H](O)[C@H]2O)c(=O)[nH]1 [Gpp(NH)p, 5′-guanylylimidodiphosphate]
reduction of high affinity [3H]5-HT binding [3]: 75%

NCCc1c[nH]cn1 [Histamine]
PERCENT INHIBITION (displacement of specific [3H]5-HT binding) [3, 11]: 10

CN1[C@@H]2CC[C@H]1C[C@@H](OC(=O)c1c[nH]c3ccccc13)C2 [ICS 203930]
PERCENT INHIBITION (displacement of specific [3H]5-HT binding) ([3]; 1000 nM competitor, 5 nM [3H]5-HT, 30 min at 37° C.): 10
inhibitory effect on the 5-HT response (human 5-HT4B receptor [2]; 100 μM): weak inhibitory effect
% INHIBITION OF 5-HT RESPONSE (human 5-HT4B receptor [2]; 100 μM drug, cAMP response to 1 μM 5-HT): 36 ± 3.0%
FOLD cAMP STIMULATION (human 5-HT4B receptor [2]; 100 μM drug, relative to basal levels): 0
activity at the clone hp78a receptor (human 5-HT4B receptor [2]): either poorly active or inactive

O=C(c1ccc(F)cc1)C1CCN(CCn2c(=O)[nH]c3ccccc3c2=O)CC1 [Ketanserin]
Ki [3, 12]: 1330 ± 241 nM

CN1C[C@@H](NS(=O)(=O)N(C)C)C[C@@H]2c3cccc4c3c(cn4C)C[C@H]21 [Mesulergine]
Emax (human 5-HT4B receptor [1]): 0%
Kb (human 5-HT4B receptor [1]; [9]): 20 ± 1 nM

CN1C[C@H](CNC(=O)OCc2ccccc2)C[C@@H]2c3cccc4c3c(cn4C)C[C@H]21 [Metergoline]
Ki [3, 12]: 6.4 ± 1.4 nM
antagonism of the 5-HT response (human 5-HT4B receptor [2]; 10 μM): almost completely
FOLD cAMP STIMULATION (human 5-HT4B receptor [2]; 10 μM drug, relative to basal levels): 0

CC[C@@H](CO)NC(=O)[C@@H]1C=C2c3cccc4c3c(cn4C)C[C@H]2N(C)C1 [Methysergide]
Ki [3, 7]: 83 ± 5 nM
antagonism [4]: Potent antagonism
FOLD cAMP STIMULATION (human 5-HT4B receptor [2]): 1.7 ± 0.43
antagonism of the 5-HT response (human 5-HT4B receptor [2]): almost completely

NC[C@H](O)c1ccc(O)c(O)c1 [Norepinephrine]
PERCENT INHIBITION (displacement of specific [3H]5-HT binding) [3, 10]: 0

Cc1cc(C(C)(C)C)c(O)c(C)c1CC1=NCCN1 [Oxymetazoline]
PERCENT INHIBITION (displacement of specific [3H]5-HT binding) ([3]; 10 nM competitor, 5 nM [3H]5-HT, 30 min at 37° C.): 6

Nc1ccc(CCN2CCN(c3cccc(C(F)(F)F)c3)CC2)cc1 [PAPP]
PERCENT INHIBITION (displacement of specific [3H]5-HT binding) [3]: 21
effect on [3H]5-CT binding (5-HT4B receptor): markedly reduced

CC(C)NCC(O)COc1cccc2ccccc12 (stereo not shown) [Propranolol]
PERCENT INHIBITION (displacement of specific [3H]5-HT binding) [3, 11]: 0

c1ccc2nc(N3CCNCC3)ccc2c1 [Quipazine]
PERCENT INHIBITION (displacement of specific [3H]5-HT binding) [3, 11]: 3

Cc1nc2sccn2c(=O)c1CCN1CCC(=C(c2ccc(F)cc2)c2ccc(F)cc2)CC1 [Ritanserin]
Ki [3, 12]: 45 ± 10 nM

O=C(CCCN1CCC2(CC1)C(=O)NCN2c1ccccc1)c1ccc(F)cc1 [Spiperone]
Ki [3, 12]: 110 ± 17 nM

O=C1NCN(c2ccccc2)C12CCN(CC1COc3ccccc3O1)CC2 (stereo not shown) [Spiroxatrine]
PERCENT INHIBITION (displacement of specific [3H]5-HT binding) [3, 10]: 12

CNS(=O)(=O)Cc1ccc2[nH]cc(CCN(C)C)c2c1 [Sumatriptan]
Ki [3, 7]: 951 ± 118 nM

COC(=O)[C@@H]1[C@H]2C[C@H]3c4[nH]c5ccccc5c4CCN3C[C@@H]2CC[C@@H]1O [Yohimbine]
Ki [3, 7]: 2850 ± 354 nM

COc1cc(N)c(Cl)cc1C(=O)NC1CN2CCC1CC2 (stereo not shown) [Zacopride]
Ki [3, 7]: > 5000 nM
activity at the clone hp78a receptor (human 5-HT4B receptor [2]): either poorly active or inactive

COc1cc(N)c(Cl)cc1C(=O)NC1CCN(CCCOc2ccc(F)cc2)CC1OC (stereo not shown) [cisapride]
activity at the clone hp78a receptor (human 5-HT4B receptor [2]): either poorly active or inactive

CCN(CC)C(=O)[C@@H]1C=C2c3cccc4[nH]cc(c34)C[C@H]2N(C)C1 [d-LSD]
PERCENT INHIBITION (displacement of specific [3H]5-HT binding) [3]: 77
INTRINSIC ACTIVITY (human 5-HT4B receptor [1]): ANTAGONIST
Emax* (% 5-HT RESPONSE) (human 5-HT4B receptor [1]; [6]): 0 % 5-HT RESPONSE
